Among the data in ChEMBL document CHEMBL6121007, “Design, synthesis and evaluation of pyrimidine derivatives as sedative-hypnotic agents” (Eur J Med Chem, 2025) are Activity values, retold here.

Common to all, as to assay type: functional, organism-based
The test system of experiment [1] is Mus musculus. Put plainly: Sedative-hypnotic activity in mouse assessed as decrease in number of square crossing at 50 mg/kg, ip administrated as single dose and measured after 30 mins by open field test.
The subject of experiment [2] is Mus musculus. Put plainly: Sedative-hypnotic activity in mouse assessed as reduction in grip strength score at 50 mg/kg, ip administrated as single dose and measured after 30 mins by grip strength test.
Experiment [3] concerns Mus musculus. Put plainly: Sedative-hypnotic activity in mouse assessed as increase in latency time of first step out of center square at 5 mg/kg, ip administrated as single dose and measured after 30 mins by open field test.

Structures are written as SMILES. The source made the active and inactive calls. The rule behind the calls is not given here.

Take `CCn1c2ccccc2c2cc(Nc3ccnc(Nc4ccc(C(F)(F)F)cc4)n3)ccc21`: the result in the experiment with Mus musculus [1] and with Mus musculus [2] was Active. Consider `Cc1cc2c(F)c(Nc3nccc(Nc4ccc5sc(C)nc5c4)n3)ccc2[nH]1`, for which the outcome in the experiment on Mus musculus [1] and with Mus musculus [2] was Active. Consider `CCn1c2ccccc2c2cc(Nc3ccnc(Nc4ccc(C(C)C)cc4)n3)ccc21`, for which the outcome in the experiment on Mus musculus [1] and in the experiment on Mus musculus [2] was Active.

For the compound `CCn1c2ccccc2c2cc(Nc3ccnc(Nc4ccc5c(c4)c4ccccc4n5CC)n3)ccc21`, the outcome with Mus musculus [1] and in the experiment with Mus musculus [2] was Active. For `CCn1c2ccccc2c2cc(Nc3ccnc(Nc4cnn(C)c4)n3)ccc21`, the outcome with Mus musculus [1] and in the experiment with Mus musculus [2] was Active. In the case of `Cc1nc2cc(Nc3ccnc(Nc4ccc5sc(C)nc5c4)n3)ccc2s1`, the result in the experiment on Mus musculus [1] and in the experiment with Mus musculus [2] was Active. With `CCn1c2ccccc2c2cc(Nc3ccnc(Nc4ccc(CC(C)C)cc4)n3)ccc21`, the result in the experiment on Mus musculus [1] and in the experiment with Mus musculus [2] was Active. For `CCn1c2ccccc2c2cc(Nc3ccnc(Nc4ccc(F)c(C)c4)n3)ccc21`, the outcome in the experiment with Mus musculus [1] and in the experiment on Mus musculus [2] was Active.

Consider `CCn1c2ccccc2c2cc(Nc3ccnc(Nc4ccc5nc(C)[nH]c5c4)n3)ccc21`, for which the result in the experiment on Mus musculus [1] and in the experiment on Mus musculus [2] was Active. Take `CCn1cc(Nc2nccc(Nc3ccc4c(c3)c3ccccc3n4CC)n2)cn1`: the result with Mus musculus [1] and with Mus musculus [2] was Active. Consider `CCn1c2ccccc2c2cc(Nc3ccnc(Nc4ccc5[nH]c(C)cc5c4F)n3)ccc21`, for which the outcome in the experiment on Mus musculus [1] and in the experiment on Mus musculus [2] was Active. For the compound `CCn1c2ccccc2c2cc(Nc3ccnc(Nc4ccc5sc(C)nc5c4)n3)ccc21`, the result in the experiment on Mus musculus [1] and in the experiment on Mus musculus [2] was Active. Turning to `Cc1nc2cc(Nc3ccnc(Nc4ccc5c(cnn5C)c4)n3)ccc2s1`, the result in the experiment with Mus musculus [1] and with Mus musculus [2] was Active. Take `CCn1c2ccccc2c2cc(Nc3nccc(Nc4ccc5sc(C)nc5c4)n3)ccc21`: the result in the experiment on Mus musculus [1] and in the experiment on Mus musculus [2] was Active. On to `COc1cc(Nc2nccc(Nc3ccc4sc(C)nc4c3)n2)ccc1O`, for which the result in the experiment with Mus musculus [1] and in the experiment on Mus musculus [2] was Active.

`CCn1c2ccccc2c2cc(Nc3ccnc(Nc4ccc(C)cc4)n3)ccc21`: the result in the experiment with Mus musculus [1] and with Mus musculus [2] was Active. As to `Cc1nc2ccc(Nc3nccc(Nc4ccc5sc(C)nc5c4)n3)cc2[nH]1`, the outcome with Mus musculus [1] and with Mus musculus [2] was Active.

As to `CCn1c2ccccc2c2cc(Nc3ccnc(Nc4cc(OC)cc(OC)c4)n3)ccc21`, the result in the experiment with Mus musculus [1] and in the experiment with Mus musculus [2] was Active. Turning to `CCn1c2ccccc2c2cc(Nc3ccnc(Nc4ccc5c(cnn5C)c4)n3)ccc21`, the result with Mus musculus [1] and in the experiment with Mus musculus [2] was Active. As for `COC(=O)c1ccc(Nc2nccc(Nc3ccc4sc(C)nc4c3)n2)cc1OC`, in the experiment on Mus musculus [1], the outcome was inactive. The result in the experiment on Mus musculus [2] was Active.

Take `CN1C(=O)CN=C(c2ccccc2)c2cc(Cl)ccc21`: in the experiment with Mus musculus [3], the result was inactive. On to `CCn1c2ccccc2c2cc(Nc3ccnc(Nc4ccc(N5CCCCC5)cc4)n3)ccc21`, for which the result in the experiment on Mus musculus [1] and in the experiment on Mus musculus [2] was Active. On to `Cc1nc2cc(Nc3ccnc(Nc4ccc(F)c(C)c4)n3)ccc2s1`, for which the outcome in the experiment on Mus musculus [1] and in the experiment with Mus musculus [2] was Active. `CCc1ccc(Nc2nccc(Nc3ccc4c(c3)c3ccccc3n4CC)n2)cc1`: the outcome in the experiment with Mus musculus [1] and with Mus musculus [2] was Active. Take `CCn1c2ccccc2c2cc(Nc3ccnc(Nc4cc(C)cc(F)c4)n3)ccc21`: the outcome in the experiment on Mus musculus [1] and in the experiment with Mus musculus [2] was Active.
